# From PubChem BioAssay AID1963432 (Molecular Pharmacology Branch, DTP, NCI, 2024)
# System: SYO-1 complex spheroid growth, percent test/control
# Assay: Anticancer human tumor SYO-1 cell line growth inhibition [Asc];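 further: compound exposure lasted 7 days after spheroids grew 3 days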;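 on viability, T/C: 100% = DMSO vehicle control viability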
# Settings: for IC50: curve of first compound; for viability, T/C: stronger effect = lower value
# Summary of the method: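 Complex spheroids combining tumor cells with HUVEC endothelial cells and human MSCs, at 37 degrees C, 5% CO2; agents tested alone or combined, half-log dilutions from at or near clinical Cmax, or 10 microM if Cmax unknown.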
# [1] = second compound 0.01 µM, first compound 0.0316 µM
# [2] = second compound 0.01 µM, first compound 0.1 µM
# [3] = second compound 0.01 µM, first compound 0.316 µM
# [4] = second compound 0.01 µM, first compound 1 µM
# [5] = second compound 0.0316 µM, first compound 0.0316 µM
# [6] = second compound 0.0316 µM, first compound 0.1 µM
# [7] = second compound 0.0316 µM, first compound 0.316 µM
# [8] = second compound 0.0316 µM, first compound 1 µM
# [9] = second compound 0.1 µM, first compound 0.0316 µM
# [10] = second compound 0.1 µM, first compound 0.1 µM
# [11] = second compound 0.1 µM, first compound 0.316 µM
# [12] = second compound 0.1 µM, first compound 1 µM
# [13] = second compound 0.316 µM, first compound 0.0316 µM
# [14] = second compound 0.316 µM, first compound 0.1 µM
# [15] = second compound 0.316 µM, first compound 0.316 µM
# [16] = second compound 0.316 µM, first compound 1 µM
# [17] = second compound 1 µM, first compound 0.0316 µM
# [18] = second compound 1 µM, first compound 0.1 µM
# [19] = second compound 1 µM, first compound 0.316 µM
# [20] = second compound 1 µM, first compound 1 µM
# [21] = second compound 0.01 µM, first compound 0.00316 µM
# [22] = second compound 0.01 µM, first compound 0.01 µM
# [23] = second compound 0.0316 µM, first compound 0.00316 µM
# [24] = second compound 0.0316 µM, first compound 0.01 µM
# [25] = second compound 0.1 µM, first compound 0.00316 µM
# [26] = second compound 0.1 µM, first compound 0.01 µM
# [27] = second compound 0.316 µM, first compound 0.00316 µM
# [28] = second compound 0.316 µM, first compound 0.01 µM
# [29] = second compound 1 µM, first compound 0.00316 µM
# [30] = second compound 1 µM, first compound 0.01 µM
compound,measurement,setting,value
C=CC(=O)N1CCN(c2nc(=O)n(-c3c(C)ccnc3C(C)C)c3nc(-c4c(O)cccc4F)c(F)cc23)C(C)C1 (stereo not given) + CNC(C)C(=O)NC1CN(S(=O)(=O)c2cccc(S(=O)(=O)N3CCC4CCC(C(=O)NC(c5ccccc5)c5ccccc5)N4C(=O)C(NC(=O)C(C)NC)C3)c2)CCC2CCC(C(=O)NC(c3ccccc3)c3ccccc3)N2C1=O,IC50,second compound 0.01 µM,> 10000 nM
same,IC50,second compound 0.0316 µM,> 10000 nM
same,IC50,second compound 0.1 µM,> 10000 nM
same,IC50,second compound 0.316 µM,> 10000 nM
same,IC50,second compound 1 µM,> 10000 nM
same,"viability, T/C",[1],104%
same,"viability, T/C",[2],105%
same,"viability, T/C",[3],101%
same,"viability, T/C",[4],102%
same,"viability, T/C","second compound 0.01 µM, first compound 3.16 µM",90.3%
same,"viability, T/C","second compound 0.01 µM, first compound 10 µM",83.6%
same,"viability, T/C",[5],97.4%
same,"viability, T/C",[6],94.5%
same,"viability, T/C",[7],99.4%
same,"viability, T/C",[8],97.2%
same,"viability, T/C","second compound 0.0316 µM, first compound 3.16 µM",87.3%
same,"viability, T/C","second compound 0.0316 µM, first compound 10 µM",86.2%
same,"viability, T/C",[9],88.3%
same,"viability, T/C",[10],94.3%
same,"viability, T/C",[11],100%
same,"viability, T/C",[12],92.5%
same,"viability, T/C","second compound 0.1 µM, first compound 3.16 µM",98.1%
same,"viability, T/C","second compound 0.1 µM, first compound 10 µM",85.4%
same,"viability, T/C",[13],96.6%
same,"viability, T/C",[14],98%
same,"viability, T/C",[15],97.5%
same,"viability, T/C",[16],93.5%
same,"viability, T/C","second compound 0.316 µM, first compound 3.16 µM",87.4%
same,"viability, T/C","second compound 0.316 µM, first compound 10 µM",89.6%
same,"viability, T/C",[17],98.1%
same,"viability, T/C",[18],98.1%
same,"viability, T/C",[19],93.1%
same,"viability, T/C",[20],95.8%
same,"viability, T/C","second compound 1 µM, first compound 3.16 µM",93.5%
same,"viability, T/C","second compound 1 µM, first compound 10 µM",88%
COc1c(OCCCN2CCOCC2)ccc2c3n(c(=NC(=O)c4cnc(N)nc4)nc12)CCN3 + CNC(C)C(=O)NC1CN(S(=O)(=O)c2cccc(S(=O)(=O)N3CCC4CCC(C(=O)NC(c5ccccc5)c5ccccc5)N4C(=O)C(NC(=O)C(C)NC)C3)c2)CCC2CCC(C(=O)NC(c3ccccc3)c3ccccc3)N2C1=O,IC50,second compound 0.01 µM,> 1000 nM
same,IC50,second compound 0.0316 µM,> 1000 nM
same,IC50,second compound 0.1 µM,> 1000 nM
same,IC50,second compound 0.316 µM,> 1000 nM
same,IC50,second compound 1 µM,> 1000 nM
same,"viability, T/C",[21],106%
same,"viability, T/C",[22],109%
same,"viability, T/C",[1],116%
same,"viability, T/C",[2],106%
same,"viability, T/C",[3],96%
same,"viability, T/C",[4],68.3%
same,"viability, T/C",[23],113%
same,"viability, T/C",[24],126%
same,"viability, T/C",[5],118%
same,"viability, T/C",[6],110%
same,"viability, T/C",[7],98.2%
same,"viability, T/C",[8],72.9%
same,"viability, T/C",[25],107%
same,"viability, T/C",[26],119%
same,"viability, T/C",[9],118%
same,"viability, T/C",[10],107%
same,"viability, T/C",[11],102%
same,"viability, T/C",[12],68.7%
same,"viability, T/C",[27],111%
same,"viability, T/C",[28],122%
same,"viability, T/C",[13],116%
same,"viability, T/C",[14],105%
same,"viability, T/C",[15],96.1%
same,"viability, T/C",[16],69.2%
same,"viability, T/C",[29],114%
same,"viability, T/C",[30],124%
same,"viability, T/C",[17],117%
same,"viability, T/C",[18],113%
same,"viability, T/C",[19],95.1%
same,"viability, T/C",[20],73.3%
NC(=O)C(=Cn1cnc(-c2cc(C(F)(F)F)cc(C(F)(F)F)c2)n1)c1cncnc1 + CNC(C)C(=O)NC1CN(S(=O)(=O)c2cccc(S(=O)(=O)N3CCC4CCC(C(=O)NC(c5ccccc5)c5ccccc5)N4C(=O)C(NC(=O)C(C)NC)C3)c2)CCC2CCC(C(=O)NC(c3ccccc3)c3ccccc3)N2C1=O,IC50,second compound 0.01 µM,281 nM
same,IC50,second compound 0.0316 µM,290 nM
same,IC50,second compound 0.1 µM,260 nM
same,IC50,second compound 0.316 µM,238 nM
same,IC50,second compound 1 µM,199 nM
same,"viability, T/C","second compound 0.01 µM, first compound 0.000949 µM",102%
same,"viability, T/C","second compound 0.01 µM, first compound 0.003 µM",101%
same,"viability, T/C","second compound 0.01 µM, first compound 0.00949 µM",111%
same,"viability, T/C","second compound 0.01 µM, first compound 0.03 µM",104%
same,"viability, T/C","second compound 0.01 µM, first compound 0.0949 µM",98%
same,"viability, T/C","second compound 0.01 µM, first compound 0.3 µM",47.1%
same,"viability, T/C","second compound 0.0316 µM, first compound 0.000949 µM",99.2%
same,"viability, T/C","second compound 0.0316 µM, first compound 0.003 µM",105%
same,"viability, T/C","second compound 0.0316 µM, first compound 0.00949 µM",106%
same,"viability, T/C","second compound 0.0316 µM, first compound 0.03 µM",108%
same,"viability, T/C","second compound 0.0316 µM, first compound 0.0949 µM",102%
same,"viability, T/C","second compound 0.0316 µM, first compound 0.3 µM",48.4%
same,"viability, T/C","second compound 0.1 µM, first compound 0.000949 µM",109%
same,"viability, T/C","second compound 0.1 µM, first compound 0.003 µM",106%
same,"viability, T/C","second compound 0.1 µM, first compound 0.00949 µM",102%
same,"viability, T/C","second compound 0.1 µM, first compound 0.03 µM",97.6%
same,"viability, T/C","second compound 0.1 µM, first compound 0.0949 µM",102%
same,"viability, T/C","second compound 0.1 µM, first compound 0.3 µM",42.6%
same,"viability, T/C","second compound 0.316 µM, first compound 0.000949 µM",103%
same,"viability, T/C","second compound 0.316 µM, first compound 0.003 µM",110%
same,"viability, T/C","second compound 0.316 µM, first compound 0.00949 µM",111%
same,"viability, T/C","second compound 0.316 µM, first compound 0.03 µM",105%
same,"viability, T/C","second compound 0.316 µM, first compound 0.0949 µM",105%
same,"viability, T/C","second compound 0.316 µM, first compound 0.3 µM",36.3%
same,"viability, T/C","second compound 1 µM, first compound 0.000949 µM",114%
same,"viability, T/C","second compound 1 µM, first compound 0.003 µM",106%
same,"viability, T/C","second compound 1 µM, first compound 0.00949 µM",111%
same,"viability, T/C","second compound 1 µM, first compound 0.03 µM",105%
same,"viability, T/C","second compound 1 µM, first compound 0.0949 µM",97.5%
same,"viability, T/C","second compound 1 µM, first compound 0.3 µM",23.6%
NC1CCC(NC2CC2c2ccccc2)CC1 (stereo not given) + CNC(C)C(=O)NC1CN(S(=O)(=O)c2cccc(S(=O)(=O)N3CCC4CCC(C(=O)NC(c5ccccc5)c5ccccc5)N4C(=O)C(NC(=O)C(C)NC)C3)c2)CCC2CCC(C(=O)NC(c3ccccc3)c3ccccc3)N2C1=O,IC50,second compound 0.01 µM,> 100 nM
same,IC50,second compound 0.0316 µM,> 100 nM
same,IC50,second compound 0.1 µM,> 100 nM
same,IC50,second compound 0.316 µM,> 100 nM
same,IC50,second compound 1 µM,> 100 nM
same,"viability, T/C","second compound 0.01 µM, first compound 0.000316 µM",109%
same,"viability, T/C","second compound 0.01 µM, first compound 0.001 µM",104%
same,"viability, T/C",[21],97.4%
same,"viability, T/C",[22],89.4%
same,"viability, T/C",[1],88.1%
same,"viability, T/C",[2],86.2%
same,"viability, T/C","second compound 0.0316 µM, first compound 0.000316 µM",106%
same,"viability, T/C","second compound 0.0316 µM, first compound 0.001 µM",94%
same,"viability, T/C",[23],89.7%
same,"viability, T/C",[24],85.6%
same,"viability, T/C",[5],87.5%
same,"viability, T/C",[6],87.5%
same,"viability, T/C","second compound 0.1 µM, first compound 0.000316 µM",102%
same,"viability, T/C","second compound 0.1 µM, first compound 0.001 µM",92.5%
same,"viability, T/C",[25],86.7%
same,"viability, T/C",[26],91.3%
same,"viability, T/C",[9],94.8%
same,"viability, T/C",[10],91%
same,"viability, T/C","second compound 0.316 µM, first compound 0.000316 µM",99.8%
same,"viability, T/C","second compound 0.316 µM, first compound 0.001 µM",97.5%
same,"viability, T/C",[27],90.5%
same,"viability, T/C",[28],90.3%
same,"viability, T/C",[13],86.6%
same,"viability, T/C",[14],86.2%
same,"viability, T/C","second compound 1 µM, first compound 0.000316 µM",103%
same,"viability, T/C","second compound 1 µM, first compound 0.001 µM",99.1%
same,"viability, T/C",[29],91.2%
same,"viability, T/C",[30],89.6%
same,"viability, T/C",[17],88.5%
same,"viability, T/C",[18],86.4%
